Experimental data: patent publication US7737112B2, “Composition for enzyme inhibition” (Onyx Therapeutics, Inc., priority 2004, dated 2010)

What was measured:
Format in all cases: physicochemical
[1] = reconstitution of lyophilized (3x) peptide (a)/SBECD formulation
Protocol: 6 mg/mL peptide (a) was formulated in an aqueous solution containing 30% (w/v) SBECD and 30 mM citric acid adjusted to pH 3.5 with 0.5 M aqueous sodium hydroxide.
(§1) Appropriate masses of SBECD and citric acid were added to a volume of WFI corresponding to 70% that of the final formulation. This mixture was then stirred at room temperature until complete dissolution of the SBECD and citric acid was effected. An appropriate mass of peptide (a) was then added and the resulting mixture stirred at room temperature until the added peptide (a) was dissolved. A pH electrode was then immersed in the solution and, with rapid stirring, the pH was adjusted to 3.5 by slow addition of 0.5 M sodium hydroxide in WFI; slow addition of the sodium hydroxide solution with adequate stirring was necessary to prevent precipitation of peptide (a). With rapid stirring, the resulting solution was then diluted with WFI to a final peptide (a) concentration of 6.0 mg/mL. This solution was then sterile filtered to yield the final formulation.
The vials containing product were loaded onto the shelves and the temperature set for 5° C. for 2 hrs. […]
Reconstitution was effected by addition of 9.75 mL of WFI, USP to produce the desired fill volume within the vial of 10.5 mL. […] The pH measured was 3.5±0.1.

[2] = solubility of peptide epoxy ketones in cyclodextrin formulations
Protocol: 100 μg/mL peptide (b) was formulated in an aqueous solution containing 130 mg/mL hydroxypropyl beta cyclodextrin (HPBCD) and ca. 0.9% (w/v) NaCl.
2 mg/mL peptide (a) was formulated in an aqueous solution containing 10% (w/v) SBECD and 10 mM citric acid adjusted to pH 3.5 with 0.1 M aqueous sodium hydroxide.
as §1, with “approximately 75%” for “70%”, “0.1” for “0.5”, “2.0” for “6.0”
Several other final pH values were used for the peptide (a)/SBECD formulations.

[3] = room temperature stability of reconstituted peptide (b)/HPBCD drug product; details: 100 μg/mL peptide (b)/HPBCD solid reconstituted in aqueous 0.9% (w/v) NaCl, sterile filtered
Protocol: The desired quantity of peptide (b) was weighed and dissolved in absolute ethanol at a concentration of 1 mg/mL. For each 1 mg of peptide (b) to be formulated, 1.3 g HPBCD was dissolved in absolute ethanol at a concentration of 10 mg/mL. This ethanol/HPBCD solution was then combined with the ethanol/peptide (b) solution, stirred 5 minutes at room temperature and then evaporated under reduced pressure (rotovapped) to yield a white solid. This solid was placed under high vacuum (ca. 1 mTorr) for 24 hrs, pulverized and then placed under high vacuum (ca. 1 mTorr) for another 4 hrs to yield dry solid. The final formulation was prepared by dissolving this solid drug product to a final concentration of 100 μg peptide (b)/mL solid drug product in ice cold USP grade aqueous 0.9% (w/v) NaCl followed by sterile filtration. Room temperature stability of the reconstituted drug product was ca. 12 hrs.

Row | Compound | time for dissolution on reconstitution ([1]; lyophilized 6 mg/mL peptide (a), 30% (w/v) SBECD, 30 mM citric acid pH 3.5, 9.75 mL WFI added, fill volume 10.5 mL) | pH measured after reconstitution ([1]; lyophilized peptide (a)/SBECD/citrate formulation reconstituted with WFI) | solubility when formulated with a cyclodextrin [2] | state of the solution at room temperature ([2]; 100 μg/mL in aqueous 130 mg/mL HPBCD, ca. 0.9% (w/v) NaCl, could not be made by simply dissolving) | Room temperature stability of the reconstituted drug product [3]
1 | CC(C)C[C@H](NC(=O)[C@H](CCc1ccccc1)NC(=O)CN1CCOCC1)C(=O)N[C@@H](Cc1ccccc1)C(=O)N[C@@H](CC(C)C)C(=O)[C@@]1(C)CO1 [peptide (a)] | less than 2 minutes | 3.5±0.1 | significantly enhanced |  | 
2 | CC(=O)N[C@@H](CCc1ccccc1)C(=O)N[C@@H](CC(C)C)C(=O)N[C@@H](Cc1ccccc1)C(=O)N[C@@H](CC(C)C)C(=O)[C@@]1(C)CO1 [peptide (b)] |  |  | significantly enhanced | supersaturated (metastable) | ca. 12 hrs
